Assay results taken from patent publication US10087166B2, “Cyclic amine azaheterocyclic carboxamides” (Merck Patent GmbH, priority 2010, dated 2018).

Biological target: T1, P70S6K (Homo sapiens, UniProt P23443, T412E)
T1 construct: purchased Millipore
Assay: P70S6K enzyme assay
Type: biochemical
Details: P70S6K T412E mutant 3 nM, 24 μM ATP, FITC-AHA-AKRRRLSSLRA-OH substrate, 90 min at 25° C.; read-out: IC50p70S6K
Description: P70S6K inhibitor compounds are diluted and plated in 96 well plates. A reaction mixture including the following components is then added to the compound plate to initiate the enzyme reaction; P70S6K (3 nM, T412E mutant, Millipore) is mixed with 24 μM ATP in an assay buffer containing 100 mM Hepes (pH 7.5), 5 mM MgCl2, 1 mM DTT, 0.015% Brij and 1 μM of the substrate peptide FITC-AHA-AKRRRLSSLRA-OH (derived from the S6 ribosomal protein sequence, FITC=fluorescein isothiocyanate, AHA=6-aminohexanoic acid). The reaction is incubated for 90 min at 25° C., before the addition of 10 mM EDTA to stop the reaction. The proportion of substrate and product (phosphorylated) peptide is analyzed on a Caliper Life Sciences Lab Chip 3000, using a pressure of −1.4 psi, and upstream and downstream voltages of −3000 and −700 respectively. Product peaks are resolved before substrate peaks on the resulting chromatograms.
To assess the inhibitory potential of the compounds, IC50-values were determined, as shown in Chemical Synthesis section above.

T1 sequence (P23443 whole entry T412E): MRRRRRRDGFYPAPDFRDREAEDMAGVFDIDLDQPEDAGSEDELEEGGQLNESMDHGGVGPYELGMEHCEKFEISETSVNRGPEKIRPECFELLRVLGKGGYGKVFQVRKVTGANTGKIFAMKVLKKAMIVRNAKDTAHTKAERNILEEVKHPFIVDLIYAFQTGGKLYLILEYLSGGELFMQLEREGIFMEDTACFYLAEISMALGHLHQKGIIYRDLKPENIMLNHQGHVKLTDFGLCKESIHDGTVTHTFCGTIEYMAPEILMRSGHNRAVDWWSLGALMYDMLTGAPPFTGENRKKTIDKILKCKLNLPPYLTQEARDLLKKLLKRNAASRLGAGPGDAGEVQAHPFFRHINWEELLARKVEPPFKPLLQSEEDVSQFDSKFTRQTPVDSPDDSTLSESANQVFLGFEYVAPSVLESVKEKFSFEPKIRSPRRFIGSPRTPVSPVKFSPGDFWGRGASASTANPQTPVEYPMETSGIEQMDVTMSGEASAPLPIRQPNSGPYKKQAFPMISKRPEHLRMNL

| Compound | IC50 [nM] |
| --- | --- |
| COc1cccc([C@@H]2CNC[C@H]2Nc2ncnc3c(C(N)=O)cccc23)c1 [compound 73, 4-(((3S,4R)-4-(3-methoxyphenyl)pyrrolidin-3-yl)amino)quinazoline-8-carboxamide] | 6.4 |
| Cc1cc([C@H]2CNC[C@@H]2Nc2ncnc3c(C(N)=O)cccc23)ccc1F [compound 75, 4-(((3R,4S)-4-(4-fluoro-3-methylphenyl)pyrrolidin-3-yl)amino)quinazoline-8-carboxamide] | 64 |
| Cc1cc([C@@H]2CNC[C@H]2Nc2ncnc3c(C(N)=O)cccc23)ccc1F [compound 76, 4-(((3S,4R)-4-(4-fluoro-3-methylphenyl)pyrrolidin-3-yl)amino)quinazoline-8-carboxamide] | 3.4 |
| NC(=O)c1cccc2c(N[C@@H]3CNC[C@H]3c3cccc4ccccc34)ncnc12 [compound 79, 4-(((3S,4R)-4-(naphthalen-1-yl)pyrrolidin-3-yl)amino)quinazoline-8-carboxamide] | 1.2 |
| NC(=O)c1cccc2c(N[C@H]3CNC[C@@H]3c3ccc4ccccc4c3)ncnc12 [compound 80, 4-(((3R,4S)-4-(naphthalen-2-yl)pyrrolidin-3-yl)amino)quinazoline-8-carboxamide] | 24 |
| Cc1nc(N[C@H]2CNC[C@@H]2c2cccc(F)c2)c2cccc(C(N)=O)c2n1 [compound 83, 4-(((3R,4S)-4-(3-fluorophenyl)pyrrolidin-3-yl)amino)-2-methylquinazoline-8-carboxamide] | 160 |
| Cc1nc(N[C@@H]2CNC[C@H]2c2cccc(F)c2)c2cccc(C(N)=O)c2n1 [compound 84, 4-(((3S,4R)-4-(3-fluorophenyl)pyrrolidin-3-yl)amino)-2-methylquinazoline-8-carboxamide] | 1.7 |
| N#Cc1cccc([C@H]2CNC[C@@H]2Nc2ncnc3c(C(N)=O)cccc23)c1 [compound 87, 4-(((3R,4S)-4-(3-cyanophenyl)pyrrolidin-3-yl)amino)quinazoline-8-carboxamide] | 81 |
| N#Cc1cccc([C@@H]2CNC[C@H]2Nc2ncnc3c(C(N)=O)cccc23)c1 [compound 88, 4-(((3S,4R)-4-(3-cyanophenyl)pyrrolidin-3-yl)amino)quinazoline-8-carboxamide] | 2.4 |
| NC(=O)c1cccc2c(N[C@H]3CNC[C@@H]3c3ccc4c(c3)CCO4)ncnc12 [compound 90, 4-(((3R,4S)-4-(2,3-dihydrobenzofuran-5-yl)pyrrolidin-3-yl)amino)quinazoline-8-carboxamide] | 4 |
| NC(=O)c1cccc2c(N[C@@H]3CNC[C@H]3c3ccc4c(c3)CCO4)ncnc12 [compound 91, 4-(((3S,4R)-4-(2,3-dihydrobenzofuran-5-yl)pyrrolidin-3-yl)amino)quinazoline-8-carboxamide] | 53 |
| Cc1c(F)cccc1[C@H]1CNC[C@@H]1Nc1ncnc2c(C(N)=O)cccc12 [compound 93, 4-(((3R,4S)-4-(3-fluoro-2-methylphenyl)pyrrolidin-3-yl)amino)quinazoline-8-carboxamide] | 1.2 |
| Cc1c(F)cccc1[C@@H]1CNC[C@H]1Nc1ncnc2c(C(N)=O)cccc12 [compound 94, 4-(((3S,4R)-4-(3-fluoro-2-methylphenyl)pyrrolidin-3-yl)amino)quinazoline-8-carboxamide] | 52 |
| NC(=O)c1cccc2c(N[C@H]3CNC[C@@H]3c3cccc(Cl)c3)ncnc12 [compound 95, 4-(((3R,4S)-4-(3-chlorophenyl)pyrrolidin-3-yl)amino)quinazoline-8-carboxamide] | 48 |
| COc1ccc([C@@H]2CNC[C@H]2Nc2ncnc3c(C(N)=O)cccc23)cc1 [compound 96, 4-(((3S,4R)-4-(4-methoxyphenyl)pyrrolidin-3-yl)amino)quinazoline-8-carboxamide] | 4.1 |
| COc1ccc([C@H]2CNC[C@@H]2Nc2ncnc3c(C(N)=O)cccc23)cc1 [compound 97, 4-(((3R,4S)-4-(4-methoxyphenyl)pyrrolidin-3-yl)amino)quinazoline-8-carboxamide] | 81 |

Results, then the compound that gave them:

| IC50 [nM] | Compound |
| --- | --- |
| 1.1 | NC(=O)c1cccc2c(N[C@@H]3CNC[C@H]3c3ccc(Cl)c(F)c3)ncnc12 [compound 101, 4-(((3S,4R)-4-(4-chloro-3-fluorophenyl)pyrrolidin-3-yl)amino)quinazoline-8-carboxamide] |
| 2.8 | NC(=O)c1cccc2c(N[C@@H]3CNC[C@H]3c3cc(F)c(F)cc3F)ncnc12 [compound 106, 4-(((3S,4R)-4-(2,4,5-trifluorophenyl)pyrrolidin-3-yl)amino)quinazoline-8-carboxamide] |
| 330 | NC(=O)c1cccc2c(N[C@H]3CNC[C@@H]3c3ccc(Cl)c(F)c3)ncnc12 [compound 112, 4-(((3R,4S)-4-(4-chloro-3-fluorophenyl)pyrrolidin-3-yl)amino)quinazoline-8-carboxamide] |
| 230 | NC(=O)c1cccc2c(N[C@@H]3CNCC[C@H]3c3ccc(C(F)(F)F)cc3)ncnc12 [compound 128] |
| 1.2 | NC(=O)c1cccc2c(N[C@H]3CNCC[C@@H]3c3ccc(C(F)(F)F)cc3)ncnc12 [compound 129, 4-(((3R,4R)-4-(4-(trifluoromethyl)phenyl)piperidin-3-yl)amino)quinazoline-8-carboxamide] |
| 1.2 | NC(=O)c1cccc2c(N[C@H]3CNCC[C@@H]3c3cccc(C(F)(F)F)c3)ncnc12 [compound 130, 4-(((3R,4R)-4-(3-(trifluoromethyl)phenyl)piperidin-3-yl)amino)quinazoline-8-carboxamide] |
| 160 | NC(=O)c1cccc2c(N[C@@H]3CNCC[C@H]3c3cccc(C(F)(F)F)c3)ncnc12 [compound 131, 4-(((3S,4S)-4-(3-(trifluoromethyl)phenyl)piperidin-3-yl)amino)quinazoline-8-carboxamide] |
